Results as given in patent publication US5889029A, “Use of cotinine in treating psychiatric disorders” (priority 1997, dated 1999).
Where two headings read alike, the source gives them in different places.

Experiments:
dopamine uptake site = target: T1, dopamine uptake site (Cavia porcellus, UniProt H0WCX4); test: Dopamine Reuptake Binding Assay; settings: Guinea pig striatal membranes, [3H]WIN,35,428 1.0 nM
T1 construct: Guinea pig striatal membranes; from tissue; host or cells: guinea pig striatal membranes

GABA uptake site = target: T2, GABA uptake site (Rattus norvegicus, UniProt P23978); test: biochemical; settings: Rat cortical membranes, [3H]GABA 3.6 nM, read-out: Receptor Binding Activity Percent Inhibition Average (N = 2)
T2 construct: Rat cortical membranes; from tissue; host or cells: rat cortical membranes

nicotinic binding site = target: T3, nicotinic binding site (Rattus norvegicus, UniProt P09483+P12390); test: biochemical; settings: Rat cortical membranes, [3H]N-methylcarbamylcholine iodide 2.5 nM, read-out: Receptor Binding Activity Percent Inhibition Average (N = 2)
T3 construct: Rat cortical membranes; from tissue; host or cells: rat cortical membranes

Dopamine (D1 Central) = target: T4, Dopamine (D1 Central) (Rattus norvegicus, UniProt P18901); test: Dopamine (D1 Central) Binding Assay; settings: Rat striatal membranes, [3H]SCH 23390 0.5 nM
T4 construct: Rat striatal membranes; from tissue; host or cells: rat striatal membranes

Histamine (H2) = target: T5, Histamine (H2) (Cavia porcellus, UniProt P47747); test: Histamine (H2) Binding Assay; design: species or system Guinea pig; settings: Guinea pig striatal membranes, [3H]Tiotidine 4.0 nM, read-out: Receptor Binding Activity Percent Inhibition Average (N = 2)
T5 construct: Guinea pig striatal membranes; from tissue; host or cells: guinea pig striatal membranes

Serotonin (5HT1A) = target: T6, Serotonin (5HT1A) (Bos taurus, UniProt F6Q2H9); test: Serotonin (5HT1A) Binding Assay; design: species or system Bovine; settings: Bovine hippocampal membranes, [3H]-8-OH-DPAT 1.0 nM, read-out: Receptor Binding Activity Percent Inhibition Average (N = 2)
T6 construct: Bovine hippocampal membranes; from tissue; host or cells: bovine hippocampal membranes
T6 sequence (F6Q2H9 1-422): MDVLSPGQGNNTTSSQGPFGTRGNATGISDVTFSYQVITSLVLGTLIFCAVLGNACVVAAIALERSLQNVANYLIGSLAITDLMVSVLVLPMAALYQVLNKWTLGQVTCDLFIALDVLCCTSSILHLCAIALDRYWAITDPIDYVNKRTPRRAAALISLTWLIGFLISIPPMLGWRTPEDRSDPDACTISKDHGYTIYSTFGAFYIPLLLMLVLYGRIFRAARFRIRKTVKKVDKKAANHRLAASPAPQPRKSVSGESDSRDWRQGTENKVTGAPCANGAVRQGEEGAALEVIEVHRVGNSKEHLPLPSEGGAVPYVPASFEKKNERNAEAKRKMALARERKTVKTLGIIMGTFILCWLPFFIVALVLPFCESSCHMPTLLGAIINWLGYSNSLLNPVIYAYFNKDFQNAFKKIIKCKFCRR

[1] = system: Serotonin (Non-Selective); test: Serotonin (Non-Selective) Binding Assay; settings: Rat cortical membranes, [3H]Lysergic acid diethylamide 5.0 nM
Opiate (Delta) = target: T7, Opiate (Delta) (Rattus norvegicus, UniProt P33533); test: Opiate (Delta) Binding Assay; settings: read-out: Receptor Binding Activity Percent Inhibition Average (N = 2)
T7 construct: Rat forebrain membranes; from tissue; host or cells: rat forebrain membranes

[2] = target: Glycine (Strychnine Insensitive) (Rattus norvegicus, UniProt P35439); test: biochemical; assay type: binding; settings: read-out: Receptor Binding Activity Percent Inhibition Average (N = 2)
[3] = target: T8, Human recombinant M2 clone (Homo sapiens, UniProt P08172); test: Muscarinic--M2 Clone Binding Assay
T8 construct: expressed in transfected cells
T8 sequence (P08172 1-466): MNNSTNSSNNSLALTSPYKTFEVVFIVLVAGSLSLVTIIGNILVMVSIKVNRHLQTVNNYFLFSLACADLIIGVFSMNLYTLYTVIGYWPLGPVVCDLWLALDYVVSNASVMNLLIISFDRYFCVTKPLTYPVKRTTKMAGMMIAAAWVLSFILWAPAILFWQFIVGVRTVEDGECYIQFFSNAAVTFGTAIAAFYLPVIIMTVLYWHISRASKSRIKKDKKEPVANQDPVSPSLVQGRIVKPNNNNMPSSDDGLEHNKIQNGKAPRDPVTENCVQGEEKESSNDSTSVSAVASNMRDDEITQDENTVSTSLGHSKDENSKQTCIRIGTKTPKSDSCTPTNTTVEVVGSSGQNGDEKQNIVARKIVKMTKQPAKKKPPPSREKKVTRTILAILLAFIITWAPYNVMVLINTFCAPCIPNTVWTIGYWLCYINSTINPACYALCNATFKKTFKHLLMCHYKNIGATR

[4] = system: Glutamic Acid Decarboxylase (GAD); test: Glutamic Acid Decarboxylase (GAD) Enzyme Assay; assay type: biochemical; settings: 10^-8 M; Rat corpus striatal membranes; [14C]L-Glutamic acid
Experimental: Radioimmunoassay studies were conducted with rat corpus striatal membranes using the following method.
Glutamic Acid Decarboxylase (GAD) Enzyme Assay
Rat corpus striatal membranes
Substrate: [^14 C]L-Glutamic acid (30-80 Ci/mmol)
Reactions are incubated in phosphate/mercapoethanol buffer
6.9) for 30 minutes at 37° C. The reaction is
stopped by the addition
of trichloroacetic acid and placement on ice. Radioactive
trapped in phenylethylamine/methanol and quantitated using
scintillation […] in order to ascertain any
of test compounds with the glutamic acid decarboxylase

[5] = cited from earlier work
[6] = cited from earlier work; remark: listed apart in the source
[7] = read-out: Receptor Binding Activity Percent Inhibition Average (N = 2)

T1 sequence (H0WCX4 1-619): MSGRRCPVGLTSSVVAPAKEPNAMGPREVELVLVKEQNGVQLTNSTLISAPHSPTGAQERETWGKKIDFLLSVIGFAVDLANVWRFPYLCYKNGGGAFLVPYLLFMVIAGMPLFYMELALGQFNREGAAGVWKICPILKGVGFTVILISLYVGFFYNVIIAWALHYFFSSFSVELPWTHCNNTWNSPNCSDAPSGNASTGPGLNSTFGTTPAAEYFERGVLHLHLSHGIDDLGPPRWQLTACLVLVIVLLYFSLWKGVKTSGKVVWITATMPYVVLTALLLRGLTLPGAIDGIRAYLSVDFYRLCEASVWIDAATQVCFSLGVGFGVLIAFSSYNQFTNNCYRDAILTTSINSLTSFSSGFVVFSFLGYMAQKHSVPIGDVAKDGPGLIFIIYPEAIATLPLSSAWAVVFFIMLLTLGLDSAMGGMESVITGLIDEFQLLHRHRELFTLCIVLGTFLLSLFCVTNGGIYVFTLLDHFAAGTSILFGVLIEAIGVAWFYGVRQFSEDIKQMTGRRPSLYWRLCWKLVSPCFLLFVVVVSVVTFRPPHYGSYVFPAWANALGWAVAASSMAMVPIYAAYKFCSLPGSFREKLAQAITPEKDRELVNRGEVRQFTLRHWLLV
T7 sequence (P33533 whole entry): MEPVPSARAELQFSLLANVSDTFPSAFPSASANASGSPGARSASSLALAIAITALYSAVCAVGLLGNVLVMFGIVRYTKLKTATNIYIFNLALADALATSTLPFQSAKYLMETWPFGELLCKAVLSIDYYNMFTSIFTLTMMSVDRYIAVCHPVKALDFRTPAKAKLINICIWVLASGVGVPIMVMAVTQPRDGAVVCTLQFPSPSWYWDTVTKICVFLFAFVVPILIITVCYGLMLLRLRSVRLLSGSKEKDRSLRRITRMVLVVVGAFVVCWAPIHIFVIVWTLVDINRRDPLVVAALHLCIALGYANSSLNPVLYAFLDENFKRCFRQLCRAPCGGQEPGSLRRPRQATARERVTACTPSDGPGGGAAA
T5 sequence (P47747 whole entry): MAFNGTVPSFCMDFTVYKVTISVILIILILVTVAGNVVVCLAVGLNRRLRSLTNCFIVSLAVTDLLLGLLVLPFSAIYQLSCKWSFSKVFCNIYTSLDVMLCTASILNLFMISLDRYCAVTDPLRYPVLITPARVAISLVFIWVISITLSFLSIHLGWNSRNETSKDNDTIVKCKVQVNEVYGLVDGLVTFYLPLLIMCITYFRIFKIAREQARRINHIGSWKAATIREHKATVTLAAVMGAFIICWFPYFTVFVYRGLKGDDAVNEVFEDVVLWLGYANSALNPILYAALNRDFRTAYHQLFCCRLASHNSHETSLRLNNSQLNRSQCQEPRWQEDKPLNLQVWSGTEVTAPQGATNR
T4 sequence (P18901 whole entry): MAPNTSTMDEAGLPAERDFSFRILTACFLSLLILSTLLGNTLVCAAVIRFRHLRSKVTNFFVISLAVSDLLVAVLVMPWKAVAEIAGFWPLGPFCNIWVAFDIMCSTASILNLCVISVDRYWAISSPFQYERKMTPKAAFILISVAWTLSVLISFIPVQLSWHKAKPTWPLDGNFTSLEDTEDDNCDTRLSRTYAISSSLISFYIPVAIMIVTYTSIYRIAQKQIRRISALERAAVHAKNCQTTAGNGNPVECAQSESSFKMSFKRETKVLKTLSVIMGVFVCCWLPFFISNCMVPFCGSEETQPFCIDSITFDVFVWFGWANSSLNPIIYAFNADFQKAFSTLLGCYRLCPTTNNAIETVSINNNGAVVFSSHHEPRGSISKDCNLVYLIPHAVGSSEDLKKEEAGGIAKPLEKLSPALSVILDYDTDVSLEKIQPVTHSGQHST
T3 sequence (P09483 31-630): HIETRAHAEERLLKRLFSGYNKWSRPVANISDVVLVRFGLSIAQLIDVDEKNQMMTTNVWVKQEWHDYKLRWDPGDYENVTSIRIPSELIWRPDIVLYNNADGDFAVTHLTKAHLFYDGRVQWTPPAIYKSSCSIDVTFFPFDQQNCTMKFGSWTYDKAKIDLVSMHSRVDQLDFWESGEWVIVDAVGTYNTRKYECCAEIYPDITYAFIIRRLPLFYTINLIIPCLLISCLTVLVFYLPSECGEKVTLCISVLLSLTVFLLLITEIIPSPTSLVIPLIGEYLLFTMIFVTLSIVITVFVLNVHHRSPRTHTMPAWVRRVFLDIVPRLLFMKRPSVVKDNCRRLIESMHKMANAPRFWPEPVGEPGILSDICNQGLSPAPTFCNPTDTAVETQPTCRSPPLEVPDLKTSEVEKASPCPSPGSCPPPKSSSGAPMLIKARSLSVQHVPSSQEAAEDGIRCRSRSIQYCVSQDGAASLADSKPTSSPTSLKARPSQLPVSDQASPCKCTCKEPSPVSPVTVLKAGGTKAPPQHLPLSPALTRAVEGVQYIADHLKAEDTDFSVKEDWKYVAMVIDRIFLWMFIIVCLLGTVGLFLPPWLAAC
T3 sequence (P12390 25-500): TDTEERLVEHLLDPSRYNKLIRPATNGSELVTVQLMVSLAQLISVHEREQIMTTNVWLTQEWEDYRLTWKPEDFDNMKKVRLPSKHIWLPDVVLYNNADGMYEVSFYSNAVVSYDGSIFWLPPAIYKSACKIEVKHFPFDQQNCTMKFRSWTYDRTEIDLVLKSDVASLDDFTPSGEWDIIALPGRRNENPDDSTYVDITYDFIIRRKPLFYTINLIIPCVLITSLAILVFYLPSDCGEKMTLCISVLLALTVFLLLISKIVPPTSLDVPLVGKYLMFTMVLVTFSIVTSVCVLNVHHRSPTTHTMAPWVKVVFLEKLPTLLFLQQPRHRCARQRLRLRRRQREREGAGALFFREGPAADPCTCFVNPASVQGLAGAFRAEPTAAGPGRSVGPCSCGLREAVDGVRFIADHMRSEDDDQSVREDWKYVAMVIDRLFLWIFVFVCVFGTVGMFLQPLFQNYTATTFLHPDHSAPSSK

SMILES: CN1C(=O)CCC1c1cccnc1 (single isomer, unassigned) [Cotinine, 1-methyl-5-(3-pyridinyl)-2-pyrrolidionone]
- Receptor Binding Activity Percent Inhibition Average (N = 2) (dopamine uptake site; 10^-4 M): 7.5%
- Receptor Binding Activity Percent Inhibition Average (N = 2) (dopamine uptake site; 10^-6 M): 14.2%
- inhibition at 100 µM (GABA uptake site; 10^-4 M): 7.4%
- inhibition at 1 µM (GABA uptake site; 10^-6 M): 13.9%
- inhibition at 100 µM (nicotinic binding site; 10^-4 M): 12%
- inhibition at 1 µM (nicotinic binding site; 10^-6 M): 78.5%
- Receptor Binding Activity Percent Inhibition Average (N = 2) (Dopamine (D1 Central); 10^-4 M): 3.3%
- Receptor Binding Activity Percent Inhibition Average (N = 2) (Dopamine (D1 Central); 10^-6 M): 2.9%
- inhibition at 100 µM (Histamine (H2); 10^-4 M): -1.4%
- inhibition at 1 µM (Histamine (H2); 10^-6 M): 9.2%
- inhibition at 100 µM (Serotonin (5HT1A); 10^-4 M): 1.4%
- inhibition at 1 µM (Serotonin (5HT1A); 10^-6 M): 1.1%
- Receptor Binding Activity Percent Inhibition Average (N = 2) ([1]; 10^-4 M): 12.1%
- Receptor Binding Activity Percent Inhibition Average (N = 2) ([1]; 10^-6 M): 4.6%
- inhibition at 1 µM (Opiate (Delta)): 8.3%
- inhibition at 100 µM (Opiate (Delta)): 10%
- inhibition at 1 µM [2]: 10.9%
- inhibition at 100 µM [2]: -0.6%
- effectiveness in binding relative to an equal concentration of nicotine, binding expressed as percent inhibition ([3]; muscarinic-2 receptor, human tissue): about five
- inhibition at 1 µM [3, 7]: 22.3%
- inhibition at 100 µM [3, 7]: 21.6%
- Percent Inhibition [4]: 38%
- terminal elimination half-life ([5]; human, in vivo): about 16 hours
- half-life ([5]; in the human, in vivo): 16 to 17 h
- oral bioavailability ([5]; in vivo, po): complete
- terminal elimination half-life ([5]; in vivo): sixteen
- blood concentration in smokers ([5]; nicotine: one-pack-a-day smoker, cotinine: one-half-pack-a-day smoker): about 300 ng/ml
- concentration ([5]; read-out: blood concentration in smokers, nicotine: one-pack-a-day smoker, cotinine: one-half-pack-a-day smoker): ~2000 nM
- amount present in the blood without producing deleterious effects ([6]; humans): ~18,000 ng/ml
- effect on the cardiovascular system ([6]; in vivo): minimal effect
- harm at very high doses ([6]; many species, including man): has not been reported to be harmful
